Measured values reported in US6375461B1 (Ultradent Products, Inc., priority 2000, dated 2002).
Read-outs that look alike come from different tables or passages of the source.

How the values were obtained:
[1] = tested on: heart rate and blood pressure; settings: in vivo
[2] = mixed with ferric salts; cited from earlier work
gingival tissue = experiment: Local effect on gingival tissue when used in gingival retraction cords; format: in vivo, patient
[3] = Reaction with iron-based astringents (ferric salts), formation of colored reaction products; format: physicochemical; settings: mixed with astringent salts
[4] = cited from earlier work
[5] = tested on: heart rate and blood pressure; experiment: Systemic effects (heart rate, blood pressure) of retraction cords packed into the gingival sulcus; settings: retraction cords packed into a person's gingival sulcus

Row | Compound | systemic effects: heart rate and blood pressure [1] | colored reaction products with ferric salts (known) [2] | stiffening and retraction of gingival tissue (gingival tissue; gingival tissue) | vasoconstricting effect (gingival tissue; used in gingival retraction cords) | colored reaction products with astringent salts including ferric salts [3] | volume of water in which 1 gram is dissolvable [4] [mL] | systemic effects: heart rate and blood pressure [5]
1 | CNC[C@H](O)c1ccc(O)c(O)c1 [epinephrine] | increase a patient's heart rate and blood pressure | immediately form purple-colored reaction products |  |  |  |  | 
2 | CNC(C)CC1CCCCC1 (stereo not drawn) [Propylhexedrine, N,α-dimethylcyclohexaneethylamine] |  |  | localized stiffening and retraction of gingival tissue | localized vasoconstricting effect | without forming colored reaction products | 500 | does not produce the systemic adrenal effects
